Experimental data from US10538516B2, “Oxadiazole derivative and pharmaceutical containing same” (National Center for Geriatrics and Gerontology, priority 2015, dated 2020).
Like-named read-outs stand apart in the source and are kept apart here.

Target: T1, GAβ-dependent amyloid fibril formation (Human Aβ1-40 + GM1-containing liposome) (Homo sapiens, UniProt P05067)
T1 construct: Human Aβ1-40 (cat. #4307-v, prepared by Peptide Institute); purchased Peptide Institute 4307-v
Assay: Thioflavin T (ThT) assay of GAβ-dependent amyloid fibril formation (Aβ1-40 with GM1-containing liposome)
Format: biochemical
Conditions: for Inhibitory activity ABC evaluation: 25 µM
Procedure, shortened: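 Human Aβ1-40 (75 μM stock) pre-incubated 10 min at room temperature with compound (75 or 15 μM solution), then GM1-containing cholesterol/sphingomyelin liposome added and incubated 37° C, 18 hours. Fibrils quantified by ThT fluorescence (ex 430/em 490 nm, pH 8.5 glycine buffer); inhibition as ratio to compound-free control.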

[1] = inhibition rate against amyloid fibril formation, final concentration of the compound 25 μM
[2] = read-out: ThT Inhibitory activity (% inhibition)
[3] = @25 μM, read-out: ThT Inhibitory activity (% inhibition)
[4] = inhibition rate against amyloid fibril formation, final concentration of the compound 25 μM, read-out: Inhibitory activity ABC evaluation

T1 sequence (P05067 672-711 limits assumed): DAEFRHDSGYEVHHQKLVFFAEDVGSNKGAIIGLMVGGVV

| SMILES | inhibition at 25 µM [4] [%] | other results |
| --- | --- | --- |
| O=C(c1ccc(Cl)cc1)N1C[C@H](O)C[C@H]1c1nc(-c2ccc(OC(F)(F)F)cc2)no1 [Compound 82, (4-chlorophenyl) ((2S,4R)-4-hydroxy-2-[3-{4-(trifluoro-methoxy)phenyl}-1,2,4-oxadiazol-5-yl]pyrrolidin-1-yl)methanone] |  | Inhibitory activity ABC evaluation [1]: C (the inhibition rate of less than 40% was evaluated as C) |
| O=C(N[C@@H](CO)c1nc(-c2ccc(C(F)(F)F)cc2)no1)c1ccccc1 [Compound 130, (S)-N-(2-hydroxy-1-(3-(4-(trifluoro-methyl)phenyl)-1,2,4-oxadiazol-5-yl)ethyl)benzamide] | > 80 | inhibition at 5 µM [2]: 67%; inhibition at 25 µM [3]: 85% |
| O=C(N[C@@H](CO)c1nc(-c2ccc(C(F)(F)F)cc2)no1)c1ccc(F)cc1 [Compound 133, (S)-4-fluoro-N-(2-hydroxy-1-(3-(4-(trifluoromethyl)phenyl)-1,2,4-oxadiazol-5-yl)ethyl)benzamide] |  | inhibition at 25 µM [3]: 88%; inhibition at 25 µM (final concentration of the compound 25 μM, ratio of ThT fluorescence intensity with/without compound, 37° C. for 18 hours, read-out: inhibition rate against amyloid fibril formation (inhibitory activity on a scale of A to C)): > 80%; Inhibitory activity ABC evaluation [1]: A (80% or more was evaluated as A) |
| O=C(N[C@@H](CO)c1nc(-c2cc(C(F)(F)F)cc(C(F)(F)F)c2)no1)c1ccc(F)cc1 [Compound 215, N-[(1S)-1-{3-[3,5-bis(trifluoromethyl)phenyl]-1,2,4-oxadiazol-5-yl}-2-hydroxyethyl]-4-fluorobenzamide] | 40 to 80 |  |
| NC(Cc1ccc(O)cc1)c1nc(-c2ccc(OC(F)(F)F)cc2)no1 (stereo not shown) [Compound 38, 4-(2-amino-2-[3-{4-(trifluoromethoxy)phenyl}-1,2,4-oxadiazol-5-yl]ethyl)phenol] | 40 to 80 |  |
| O=C(N[C@@H](CO)c1nc(-c2ccc(OCCN3CCOCC3)cc2)no1)c1ccccc1 [Compound 158, N-[(1S)-2-hydroxy-1-(3-{4-[2-(morpholin-4-yl)ethoxy]phenyl}-1,2,4-oxadiazol-5-yl)ethyl] benzamide] | 40 to 80 |  |
| O=C(Cc1ccc(F)cc1)NC(CO)c1nc(-c2ccc(C(F)(F)F)cc2)no1 (stereo not shown) [Compound 187, 2-(4-fluorophenyl)-N-(2-hydroxy-1-{3-[4-(trifluoromethyl)phenyl]-1,2,4-oxadiazol-5-yl}ethyl)acetamide] | 40 to 80 |  |
| N#Cc1cccc(-c2nnc([C@H](CO)NC(=O)c3ccc(Cl)cc3)o2)c1 [Compound 106, (S)-4-chloro-N-(1-(5-(3-cyanophenyl)-1,3,4-oxadiazol-2-yl)-2-hydroxyethyl) benzamide] | 40 to 80 |  |

The next lines start with results.

| inhibition at 25 µM [4] [%] | SMILES | other results |
| --- | --- | --- |
| > 80 | O=C1CC(c2nc(-c3ccc4c(c3)OC(F)(F)O4)no2)CN1c1ccc(Cl)cc1 (stereo not shown) [Compound 32, 1-(4-chlorophenyl)-4-{3-(2,2-difluoro-benzo[d][1,3]dioxol-5-yl)-1,2,4-oxadiazol-5-yl}pyrrolidin-2-one] | inhibition at 5 µM [2]: 43%; inhibition at 25 µM [3]: 86% |
| 40 to 80 | O=C1CC(c2nc(-c3ccc(OC(F)(F)F)cc3)ns2)CN1c1ccc(Cl)cc1 (stereo not shown) [Compound 121, 1-(4-chlorophenyl)-4-{3-[4-(trifluoromethoxy)phenyl]-1,2,4-thiadiazol-5-yl}pyrrolidin-2-one] |  |
| < 40 | O=C(Nc1ccc(Cl)cc1)NC1(c2nc(-c3ccc(OC(F)(F)F)cc3)no2)CCCC1 [Compound 36, 1-(4-chlorophenyl)-3-(1-[3-{4-(trifluoromethoxy)phenyl}-1,2,4-oxadiazol-5-yl]cyclopentyl)urea] |  |
| < 40 | O=C(N[C@@H](CO)c1nc(-c2ccc(Cl)o2)no1)c1ccc(F)cc1 [Compound 228, N-[(1S)-1-[3-(5-chlorofuran-2-yl)-1,2,4-oxadiazol-5-yl]-2-hydroxyethyl]-4-fluorobenzamide] |  |
| > 80 | O=C(N[C@@H](CO)c1nc(-c2cccc(C(F)(F)F)c2)no1)c1ccc(F)cc1 [Compound 176, 4-fluoro-N-[(1S)-2-hydroxy-1-{3-[3-(trifluoromethyl)phenyl]-1,2,4-oxadiazol-5-yl}ethyl] benzamide] |  |
